Data from patent US20040018253A1, “Use of CYP2D6 inhibitors in combination therapies” (priority 1999, published 2004).
Like-named read-outs stand apart in the source and are kept apart here.

How the values were obtained:
CYP = conditions: cited from earlier work
[1] = after oral administration of imipramine; extensive metabolizers; cited from earlier work
CYP2D6 [2] = molecular target: T1, CYP2D6 (Homo sapiens, UniProt P10635); assay: CYP2D6 catalyzed metabolism, Michaelis-Menten KM
[3] = Human pharmacokinetics of CYP2D6 substrates (half-life, oral bioavailability, hepatic extraction)
CYP2D6 [4] = molecular target: T1, CYP2D6; conditions: in vivo, via inhibition of CYP2D6; cited from earlier work
[5] = increasing dose; not observed in poor metabolizers; cited from earlier work
CYP2D6 [6] = molecular target: T1, CYP2D6
[7] = in vivo

T1 sequence (P10635 whole entry): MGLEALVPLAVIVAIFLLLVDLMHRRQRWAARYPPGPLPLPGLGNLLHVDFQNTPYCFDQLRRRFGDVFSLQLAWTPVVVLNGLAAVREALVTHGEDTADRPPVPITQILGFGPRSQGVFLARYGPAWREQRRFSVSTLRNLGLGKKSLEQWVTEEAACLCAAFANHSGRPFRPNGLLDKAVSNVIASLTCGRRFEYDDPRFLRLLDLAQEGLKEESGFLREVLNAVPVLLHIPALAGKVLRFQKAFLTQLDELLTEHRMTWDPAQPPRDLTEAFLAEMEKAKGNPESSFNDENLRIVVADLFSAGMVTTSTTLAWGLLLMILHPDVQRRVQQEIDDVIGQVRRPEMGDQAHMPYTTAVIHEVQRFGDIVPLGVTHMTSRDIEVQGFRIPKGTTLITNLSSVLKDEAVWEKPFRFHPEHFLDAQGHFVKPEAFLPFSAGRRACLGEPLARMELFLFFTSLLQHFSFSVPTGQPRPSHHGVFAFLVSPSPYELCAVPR

For `O=c1c(-c2c(O)cc(O)c3c(=O)cc(-c4ccc(O)cc4)oc23)c(-c2ccc(O)cc2)oc2cc(O)cc(O)c12` [I3, II8-biapigenin], the CYP inhibitory activity (CYP) is given as “exhibit CYP inhibitory activity”.

In the case of `CNCCCN1c2ccccc2CCc2ccccc21` [desipramine], the “range of steady state plasma concentrations” value [1] is listed as 20 fold.

In the case of `O=C1CCC(=O)N1C[C@H]1CC[C@H]2CN(c3ncccn3)CCN2C1` [sunipetron, (7S,9S)-2-(2-pyrimidyl)-7-(succinamidomethyl)-prehydro-1H-pyrido-[1,2-a]pyrazine], the Km (CYP2D6 [2]; CYP2D6 substrate) is reported as roughly 1 µM and the human oral bioavailability ([3]; oral) is reported as 4.6%.

For `C=C[C@H]1C[N@@]2CC[C@H]1C[C@@H]2[C@@H](O)c1ccnc2ccc(OC)cc12` [quinidine], the “effect on metabolizer phenotype” value (CYP2D6 [4]) is given as “converting an extensive metabolizer to the poor metabolizer phenotype”.

For `Fc1ccc([C@@H]2CCNC[C@H]2COc2ccc3c(c2)OCO3)cc1` [paroxetine], the dose-exposure relationship [5] is listed as “supraproportional”.

`C[C@@H]([C@@H](O)c1ccc(O)cc1)N1CCC(O)(c2ccccc2)CC1` [(1S,2S)-1-(4-hydroxyphenyl)-2-(4-hydroxy-4-phenylpiperidin-1-yl)-1-propanol] gave a Km (CYP2D6 [2]; human) of 3 to 4 µM and a half-life ([3]; in vivo) of 3 to 4 h.

In the case of `Cc1cc(O)c2c(=O)c3c(O)cc(O)c4c5c(O)cc(O)c6c(=O)c7c(O)cc(C)c8c1c2c(c34)c(c78)c65` [hypericin], the CYP inhibitory activity (CYP) is given as “exhibit CYP inhibitory activity”.

In the case of `COc1ccccc1CN[C@H]1CCCN[C@H]1c1ccccc1` [(2S,3S)-2-phenyl-3-(2-methoxyphenyl)-methylaminopiperidine], the Km (CYP2D6 [6]) is reported as roughly 1 µM, the human half-life ([7]; human) is reported as “about 4.7 hours” and the human oral bioavailability ([7]; human, po) is reported as 1.0%. For the same molecule, the hepatic extraction ([7]; iv) was “exceeds 90%”.

In the case of `CN(C)CCCN1c2ccccc2CCc2ccccc21` [imipramine], the “range of steady state plasma concentrations” value [1] is listed as 20 fold.

For `O=c1c(O)c(-c2ccc(O)c(O)c2)oc2cc(O)cc(O)c12` [quercetin], the CYP inhibitory activity (CYP) is given as “exhibit CYP inhibitory activity”.
